Data published in patent US20090041806A1, “USE OF PRODRUGS OF GABA ANALOGS, ANTISPASTICITY AGENTS, AND PRODRUGS OF GABA B RECEPTOR AGONISTS FOR TREATING SPASTICITY” (XenoPort, Inc., priority 2007, published 2009).

Columns and labels:
[1] = oral; 2 mg t.i.d. R-baclofen equivalent to 10 mg t.i.d. racemic baclofen; cited from earlier work
[2] = Uptake of R-baclofen following oral administration of R-baclofen prodrugs to cynomolgus monkeys; conditions: cynomolgus monkey, in vivo
Procedure: (5 mg baclofen-eq/kg) were administered by oral gavage to groups of four male cynomolgus monkeys as either an aqueous solution or suspension in 0.5% methylcellulose/0.1% Tween-80 respectively. […] The oral bioavailability of both prodrugs: • (sodium 4-{[(1S)-isobutanoyloxyisobutoxy]carbonylamino}-(3R)-(4-chlorophenyl)-butanoate; and • 4-{[(1S)-isobutanoyloxyisobutoxy]carbonylamino}-(3R)-(4-chlorophenyl)-butanoic acid;

[3] = cited from earlier work
[4] = Uptake of gabapentin following intracolonic administration of gabapentin or gabapentin prodrugs in rats; assay type: in vivo; conditions: rat, dose equivalent to 25 mg gabapentin per kg
Procedure: Sustained release oral dosage forms, which release drug slowly over periods of 6-24 hours, generally release a significant proportion of the dose within the colon. […] This experiment was conducted to assess the suitability of gabapentin prodrugs for use in oral sustained release dosage forms.
Rats were obtained commercially and were pre-cannulated in the both the ascending colon and the jugular vein. Animals were conscious at the time of the experiment. All animals were fasted overnight and until 4 hours post-dosing. […]
were administered as a solution (in water or PEG 400) directly into the colon via the cannula at a dose equivalent to 25 mg of gabapentin per kg. […] Blood samples were analyzed as described below. […]
were used. […] The peaks were integrated using Analyst 1.1 quantitation software.

[5] = Randomized, crossover, fed/fasted single-dose pharmacokinetic study of oral sustained release tablets of compound (7) in healthy adult subjects; conditions: for AUC of compound (7) in blood as percent of the corresponding AUC of gabapentin in blood / maximum intact prodrug concentration as percent of the corresponding peak gabapentin concentration: oral tablets
Procedure: A randomized, crossover, fed/fasted single-dose study of the safety, tolerability, and pharmacokinetics of oral administration of 1-{[α-isobutanoyloxyethoxy)carbonyl]aminomethyl}-1-cyclohexane acetic acid (7) in healthy adult subjects was conducted. The oral sustained release dosage form of Example 4 was used in this study. The study was designed to evaluate the performance of this formulation in humans in comparison with the commercial gabapentin capsule formulation (Neurontin®, Pfizer). Twelve healthy adult volunteers (7 males and 5 females) participated in the study. Mean body weight was 75.6 kg. All subjects received two different treatments in a random order with a one-week washout between treatments. The two treatments were: a single oral dose of Example 4 tablets (2×600 mg) after an overnight fast; and a single oral dose of Example 4 tablets (2×600 mg) after a high fat breakfast.
Blood and plasma samples were collected from all subjects prior to dosing, and at 0.5, 1, 1.5, 2, 3, 4, 6, 8, 12, 18, 24, and 36 hours after dosing. Urine samples were collected from all subjects prior to dosing, and complete urine output was obtained at the 0-4 h, 4-8 h, 8-12 h, 12-18 h, 18-24 h, and 24-36 h intervals after dosing. Blood samples were quenched immediately with methanol and stored frozen at […] Sample aliquots were prepared for analysis of gabapentin and compound (7) using sensitive and specific LC/MS/MS methods.

[6] = oral baclofen; cited from earlier work

For `NC[C@H](CC(=O)O)c1ccc(Cl)cc1` [R-baclofen, R-(−)-baclofen], the “potency of orally administered R-baclofen relative to orally administered racemic baclofen” value [1] is listed as “about 5 fold”.

In the case of `CC(C)C(=O)O[C@@H](OC(=O)NC[C@H](CC(=O)[O-])c1ccc(Cl)cc1)C(C)C.[Na+]` [sodium 4-{[(1S)-isobutanoyloxyisobutoxy]carbonylamino}-(3R)-(4-chlorophenyl)-butanoate], the “oral bioavailability as R-baclofen” value [2] was “greater than 80%”.

In the case of `NCC1(CC(=O)O)CCCCC1` [gabapentin], the “typical Tmax of immediate release gabapentin” value [3] is listed as 2 to 4 h.

With `CC(OC(=O)NCC1(CC(=O)O)CCCCC1)OC(=O)C(C)C` (stereo not drawn) [compound (7), 1-{[(α-isobutanoyloxyethoxy)carbonyl]aminomethyl}-1-cyclohexane acetic acid] the “area under the gabapentin plasma concentration vs. time curve (AUC) relative to colonic administration of gabapentin itself” value [4] was “greater than 10 fold”, the “maximum plasma concentration of gabapentin (Cmax) relative to colonic administration of gabapentin itself” value [4] was “greater than 10 fold” and the “maximum concentration of intact compound (7) in blood” value ([5]; human, in vivo, po) was 0.040 µg/mL. The “AUC of compound (7) in blood as percent of the corresponding AUC of gabapentin in blood” value ([5]; fasted subjects) was 0.3%, the “maximum intact prodrug concentration as percent of the corresponding peak gabapentin concentration” value ([5]; fasted subjects) was “approximately 1.0%” and the “AUC of compound (7) in blood as percent of the corresponding AUC of gabapentin in blood” value ([5]; fed subjects) was “less than 0.1%”. The “maximum intact prodrug concentration as percent of the corresponding peak gabapentin concentration” value ([5]; fed subjects) was “approximately 0.3%”.

In the case of `NCC(CC(=O)O)c1ccc(Cl)cc1` (racemic) [Baclofen, (±)-4-amino-3-(4-chlorophenyl)butanoic acid], the elimination half-life [6] is listed as 3 to 4 h.
